What was measured:
[1] = Effect of Vitamin E-TPGS on the pharmacokinetics of eletriptan in beagle dogs; format: in vivo; conditions: male, dog, plasma, oral, fasted, 0.2 or 1.0 mg/kg eletriptan with or without 6.67 mg/kg Vitamin E-TGPS
Experimental: This was a crossover study to assess the effects of Vitamin E-TGPS on the rate of absorption of eletriptan. Four male beagle dogs were orally dosed in the fasted state with a 20 ml aqueous formulation comprising
(a) 0.2 mg/kg eletriptan;
(b) 0.2 mg/kg eletriptan coformulated with 6.67 mg/kg of Vitamin E-TGPS;
(c) 1.0 mg/kg eletriptan; and
(d) 1.0 mg/kg eletriptan coformulated with 6.67 mg/kg of Vitamin E-TGPS.
Blood samples (2.5 ml) were collected at 0, 0.17, 0.33, 0.5, 1, 2, 4, 6, 8, 12 and 24 hours after dosing and centrifuged. The resulting plasma samples were deep frozen until analysed for eletriptan by hplc with electrochemical detection.

p-gp = p-gp (Homo sapiens, UniProt P08183); assay: in vitro; conditions: Caco-2
[2] = test system: Human Intestinal (Caco-2) Cell Monolayers; assay: Eletriptan transport across Caco-2 cell monolayers, effect of concentration; format: in vitro ADME; conditions: Caco-2, higher secretory than absorptive flux at low concentrations
Experimental: (§1) Caco-2 cell monolayers were grown on permeable 24 well filter supports (1 μm poresize) and used at Day 15-28.
(§2) In studies examining the effect of concentration, 1, 10, 25 and 100 μM solutions of eletriptan in HBSS were added to the donor chamber and Hank's balanced salt solution (HBSS) was added to the acceptor chamber. The volume of the apical and basolateral chambers were 0.25 ml and 1 ml respectively.

[3] = as above; format: in vitro ADME, human; conditions: human, 2 hours, 37° C.
Experimental: as §1, §2

[4] = in vivo

p-gp, sequence (P08183 whole entry): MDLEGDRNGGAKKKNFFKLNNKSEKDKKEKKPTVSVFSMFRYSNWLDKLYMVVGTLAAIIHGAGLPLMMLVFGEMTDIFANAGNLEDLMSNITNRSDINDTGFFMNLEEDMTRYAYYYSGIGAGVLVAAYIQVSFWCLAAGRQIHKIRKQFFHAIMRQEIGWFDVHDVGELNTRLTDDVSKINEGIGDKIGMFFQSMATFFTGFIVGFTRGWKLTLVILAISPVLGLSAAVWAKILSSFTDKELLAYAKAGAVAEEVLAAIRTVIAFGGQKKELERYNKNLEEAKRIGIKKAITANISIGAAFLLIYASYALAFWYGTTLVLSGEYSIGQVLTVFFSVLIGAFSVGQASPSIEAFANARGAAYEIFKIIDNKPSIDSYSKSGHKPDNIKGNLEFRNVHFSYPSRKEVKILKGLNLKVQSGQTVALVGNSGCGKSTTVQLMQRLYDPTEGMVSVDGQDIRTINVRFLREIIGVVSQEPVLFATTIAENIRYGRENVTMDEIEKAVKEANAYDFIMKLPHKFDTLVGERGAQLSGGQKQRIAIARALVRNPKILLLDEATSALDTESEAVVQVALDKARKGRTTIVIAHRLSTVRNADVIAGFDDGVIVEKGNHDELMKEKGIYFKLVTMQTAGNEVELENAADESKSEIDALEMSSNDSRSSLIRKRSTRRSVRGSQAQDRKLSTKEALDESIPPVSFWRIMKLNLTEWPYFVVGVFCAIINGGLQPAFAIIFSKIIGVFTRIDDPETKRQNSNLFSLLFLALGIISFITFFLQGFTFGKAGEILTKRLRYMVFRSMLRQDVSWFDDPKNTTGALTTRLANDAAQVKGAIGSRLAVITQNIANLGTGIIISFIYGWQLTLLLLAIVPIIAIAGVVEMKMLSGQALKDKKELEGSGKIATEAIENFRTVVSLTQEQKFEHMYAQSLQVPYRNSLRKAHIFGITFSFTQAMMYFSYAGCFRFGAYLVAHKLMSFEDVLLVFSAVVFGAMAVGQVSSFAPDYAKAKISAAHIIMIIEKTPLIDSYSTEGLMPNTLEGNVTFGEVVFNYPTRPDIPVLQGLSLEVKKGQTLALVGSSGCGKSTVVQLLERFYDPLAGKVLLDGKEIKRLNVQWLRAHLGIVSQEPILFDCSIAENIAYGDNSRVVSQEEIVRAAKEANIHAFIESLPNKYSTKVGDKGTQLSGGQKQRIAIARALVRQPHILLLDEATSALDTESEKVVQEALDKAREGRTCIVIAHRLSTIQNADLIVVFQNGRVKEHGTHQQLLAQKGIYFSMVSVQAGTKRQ

Compound: CN1CCC[C@@H]1Cc1c[nH]c2ccc(CCS(=O)(=O)c3ccccc3)cc12 [eletriptan]
- Cmax [1]: 7 to 15 ng/mL
- Tmax [1]: 1 to 1.7 h
- Papp A→B at 2 h, 10 μM (p-gp): 16 ×10⁻⁶ cm/s
- Papp B→A at 2 h, 10 μM (p-gp): 32.6 ×10⁻⁶ cm/s
- substrate for the p-gp efflux transporter [2]: substrate
- Papp A→B at 2 h, 1 μM ([3]; Caco-2, 1 μM eletriptan, read-out: Absorptive A -> B Papp): 17 ×10⁻⁶ cm/s
- Papp B→A at 2 h, 1 μM ([3]; Caco-2, 1 μM eletriptan, read-out: Secretory B -> A Papp): 41.8 ×10⁻⁶ cm/s
- Papp A→B at 2 h, 10 μM ([3]; Caco-2, 10 μM eletriptan, read-out: Absorptive A -> B Papp): 20.2 ×10⁻⁶ cm/s
- Papp B→A at 2 h, 10 μM ([3]; Caco-2, 10 μM eletriptan, read-out: Secretory B -> A Papp): 36.1 ×10⁻⁶ cm/s
- Papp A→B at 2 h, 25 μM ([3]; Caco-2, 25 μM eletriptan, read-out: Absorptive A -> B Papp): 21.1 ×10⁻⁶ cm/s
- Papp B→A at 2 h, 25 μM ([3]; Caco-2, 25 μM eletriptan, read-out: Secretory B -> A Papp): 34.1 ×10⁻⁶ cm/s
- Papp A→B at 2 h, 100 μM ([3]; Caco-2, 100 μM eletriptan, read-out: Absorptive A -> B Papp): 29.9 ×10⁻⁶ cm/s
- Papp B→A at 2 h, 100 μM ([3]; Caco-2, 100 μM eletriptan, read-out: Secretory B -> A Papp): 32.8 ×10⁻⁶ cm/s

Compound: CC(=O)N1CCN(c2ccc(OCC3COC(Cn4ccnc4)(c4ccc(Cl)cc4Cl)O3)cc2)CC1 (stereo not drawn) [ketoconazole]
- eletriptan kel with the inhibitor [4]: significantly reduced

Compound: CC[C@H]1OC(=O)[C@H](C)[C@@H](O[C@H]2C[C@@](C)(OC)[C@@H](O)[C@H](C)O2)[C@H](C)[C@@H](O[C@@H]2O[C@H](C)C[C@H](N(C)C)[C@H]2O)[C@](C)(O)C[C@@H](C)C(=O)[C@H](C)[C@@H](O)[C@]1(C)O [erythromycin]
- eletriptan kel with the inhibitor [4]: significantly reduced
